{"source": "ChEMBL document CHEMBL4507281", "about": "“Data for DCP probe BI-4394” (2021)", "key": {"[1]": {"system": "Receptor-type tyrosine-protein kinase FLT3 (Homo sapiens), P36888 [D835V]", "conditions": "Compound concentration 100.0 nM"}, "[2]": {"molecular_target": "Death-associated protein kinase 3 (Homo sapiens) (UniProt O43293)", "sequence (O43293 whole entry, looked up)": "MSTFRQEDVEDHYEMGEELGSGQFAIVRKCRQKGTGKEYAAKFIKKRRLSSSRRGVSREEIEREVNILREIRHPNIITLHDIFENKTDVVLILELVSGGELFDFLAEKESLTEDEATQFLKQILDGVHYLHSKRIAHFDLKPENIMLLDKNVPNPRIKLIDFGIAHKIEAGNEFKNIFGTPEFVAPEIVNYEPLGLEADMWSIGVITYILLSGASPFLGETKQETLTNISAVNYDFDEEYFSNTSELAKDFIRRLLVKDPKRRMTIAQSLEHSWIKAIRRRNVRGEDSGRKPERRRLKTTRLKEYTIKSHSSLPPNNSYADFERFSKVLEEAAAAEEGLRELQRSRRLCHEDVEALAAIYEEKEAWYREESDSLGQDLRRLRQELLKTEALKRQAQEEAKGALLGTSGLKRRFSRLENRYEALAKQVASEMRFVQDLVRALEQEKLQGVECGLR", "conditions": "Compound concentration 100.0 nM"}, "[3]": {"molecular_target": "Activin receptor type-1-like (Homo sapiens) (UniProt P37023)", "sequence (P37023 whole entry)": "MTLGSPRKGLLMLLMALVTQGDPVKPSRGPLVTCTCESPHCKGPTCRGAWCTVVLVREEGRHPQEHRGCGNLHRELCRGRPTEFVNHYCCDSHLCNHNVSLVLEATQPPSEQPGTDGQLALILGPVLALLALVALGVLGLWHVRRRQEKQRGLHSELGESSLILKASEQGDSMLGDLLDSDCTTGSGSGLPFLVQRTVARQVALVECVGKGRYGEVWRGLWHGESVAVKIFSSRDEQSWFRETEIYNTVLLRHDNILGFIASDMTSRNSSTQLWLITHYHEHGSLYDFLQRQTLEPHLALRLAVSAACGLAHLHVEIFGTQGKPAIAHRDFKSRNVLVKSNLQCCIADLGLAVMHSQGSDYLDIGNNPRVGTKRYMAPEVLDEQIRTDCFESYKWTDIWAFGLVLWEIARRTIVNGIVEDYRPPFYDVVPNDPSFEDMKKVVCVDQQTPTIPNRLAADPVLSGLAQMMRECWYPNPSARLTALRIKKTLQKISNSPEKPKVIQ", "conditions": "Compound concentration 100.0 nM"}, "[4]": {"molecular_target": "5'-AMP-activated protein kinase catalytic subunit alpha-2 (Homo sapiens) (UniProt P54646)", "sequence (P54646 whole entry, looked up)": "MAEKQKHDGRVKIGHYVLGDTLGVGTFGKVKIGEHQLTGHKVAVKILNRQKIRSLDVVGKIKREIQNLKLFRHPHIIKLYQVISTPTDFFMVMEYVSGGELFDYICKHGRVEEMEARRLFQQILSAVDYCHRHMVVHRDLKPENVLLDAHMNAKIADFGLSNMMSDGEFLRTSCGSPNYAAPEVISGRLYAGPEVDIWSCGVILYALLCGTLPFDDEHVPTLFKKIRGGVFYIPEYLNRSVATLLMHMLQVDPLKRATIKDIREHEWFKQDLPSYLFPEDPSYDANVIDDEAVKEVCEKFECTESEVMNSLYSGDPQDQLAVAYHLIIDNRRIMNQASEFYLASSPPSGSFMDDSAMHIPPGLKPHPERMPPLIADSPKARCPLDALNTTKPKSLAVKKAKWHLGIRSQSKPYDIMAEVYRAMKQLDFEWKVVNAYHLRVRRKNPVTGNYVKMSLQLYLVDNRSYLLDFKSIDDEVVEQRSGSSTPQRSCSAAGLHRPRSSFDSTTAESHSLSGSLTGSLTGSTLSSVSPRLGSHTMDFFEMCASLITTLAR", "conditions": "Compound concentration 100.0 nM"}, "[5]": {"molecular_target": "Dual specificity tyrosine-phosphorylation-regulated kinase 1A (Homo sapiens) (UniProt Q13627)", "conditions": "Compound concentration 100.0 nM"}, "[6]": {"molecular_target": "Serine/threonine-protein kinase PAK 5 (Homo sapiens) (UniProt Q9P286)", "conditions": "Compound concentration 100.0 nM"}, "[7]": {"molecular_target": "Peripheral plasma membrane protein CASK (Homo sapiens) (UniProt O14936)", "conditions": "Compound concentration 100.0 nM"}, "[8]": {"molecular_target": "Dual specificity mitogen-activated protein kinase kinase 3 (Homo sapiens) (UniProt P46734)", "conditions": "Compound concentration 100.0 nM"}, "[9]": {"molecular_target": "Serine/threonine-protein kinase 17B (Homo sapiens) (UniProt O94768)", "conditions": "Compound concentration 100.0 nM"}, "[10]": {"molecular_target": "Myosin light chain kinase, smooth muscle (Homo sapiens) (UniProt Q15746)", "conditions": "Compound concentration 100.0 nM"}, "[11]": {"molecular_target": "T1, Tyrosine-protein kinase JAK3 (Homo sapiens) (UniProt P52333)", "T1 sequence (whole entry)": "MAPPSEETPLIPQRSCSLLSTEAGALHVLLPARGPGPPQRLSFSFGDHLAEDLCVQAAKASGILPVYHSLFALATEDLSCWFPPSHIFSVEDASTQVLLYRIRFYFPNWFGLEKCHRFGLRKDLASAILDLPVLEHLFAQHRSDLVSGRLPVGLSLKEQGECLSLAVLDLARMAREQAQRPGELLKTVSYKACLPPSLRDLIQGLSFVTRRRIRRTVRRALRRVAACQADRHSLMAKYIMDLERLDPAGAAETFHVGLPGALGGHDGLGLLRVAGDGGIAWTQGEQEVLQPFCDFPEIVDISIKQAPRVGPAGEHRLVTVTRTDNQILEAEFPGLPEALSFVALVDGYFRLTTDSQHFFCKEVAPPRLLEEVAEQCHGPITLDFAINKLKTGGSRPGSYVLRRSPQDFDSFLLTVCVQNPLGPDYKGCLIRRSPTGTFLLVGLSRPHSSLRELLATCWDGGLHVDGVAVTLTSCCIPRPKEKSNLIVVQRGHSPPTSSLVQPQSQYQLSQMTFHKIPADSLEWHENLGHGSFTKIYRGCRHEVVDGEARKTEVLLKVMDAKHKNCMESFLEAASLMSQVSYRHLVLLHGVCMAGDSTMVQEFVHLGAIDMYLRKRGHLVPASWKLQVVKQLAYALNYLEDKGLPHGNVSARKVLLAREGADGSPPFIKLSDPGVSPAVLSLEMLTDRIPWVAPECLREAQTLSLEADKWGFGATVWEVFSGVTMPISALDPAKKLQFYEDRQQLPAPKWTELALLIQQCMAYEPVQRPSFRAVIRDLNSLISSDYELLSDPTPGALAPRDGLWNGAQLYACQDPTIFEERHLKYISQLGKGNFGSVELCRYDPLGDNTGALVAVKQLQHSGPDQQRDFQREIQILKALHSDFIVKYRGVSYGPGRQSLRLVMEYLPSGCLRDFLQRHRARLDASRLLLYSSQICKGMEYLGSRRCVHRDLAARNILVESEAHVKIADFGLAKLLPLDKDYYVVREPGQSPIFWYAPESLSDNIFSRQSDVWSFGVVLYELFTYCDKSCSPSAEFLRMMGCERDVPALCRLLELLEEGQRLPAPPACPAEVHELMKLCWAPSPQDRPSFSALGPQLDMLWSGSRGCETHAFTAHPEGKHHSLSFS", "conditions": "Compound concentration 100.0 nM"}, "[12]": {"system": "Mast/stem cell growth factor receptor Kit (Homo sapiens), P10721 [V559D,V654A]", "conditions": "Compound concentration 100.0 nM"}, "[13]": {"system": "Receptor-type tyrosine-protein kinase FLT3 (Homo sapiens), P36888 [R834Q]", "conditions": "Compound concentration 100.0 nM"}, "[14]": {"molecular_target": "Cyclin-dependent kinase 3 (Homo sapiens) (UniProt Q00526)", "conditions": "Compound concentration 100.0 nM"}, "[15]": {"molecular_target": "Aurora kinase B (Homo sapiens) (UniProt Q96GD4)", "sequence (Q96GD4 whole entry)": "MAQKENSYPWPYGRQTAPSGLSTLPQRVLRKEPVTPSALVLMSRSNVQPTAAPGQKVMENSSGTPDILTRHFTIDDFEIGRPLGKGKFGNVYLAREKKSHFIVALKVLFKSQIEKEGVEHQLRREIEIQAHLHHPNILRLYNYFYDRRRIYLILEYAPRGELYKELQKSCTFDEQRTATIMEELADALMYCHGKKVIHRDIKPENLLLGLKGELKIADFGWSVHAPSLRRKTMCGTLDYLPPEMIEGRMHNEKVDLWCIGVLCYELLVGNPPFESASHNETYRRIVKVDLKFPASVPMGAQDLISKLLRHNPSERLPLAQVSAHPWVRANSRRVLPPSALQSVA", "conditions": "Compound concentration 100.0 nM"}, "[16]": {"molecular_target": "Cyclin-dependent kinase 18 (Homo sapiens) (UniProt Q07002)", "sequence (Q07002 whole entry)": "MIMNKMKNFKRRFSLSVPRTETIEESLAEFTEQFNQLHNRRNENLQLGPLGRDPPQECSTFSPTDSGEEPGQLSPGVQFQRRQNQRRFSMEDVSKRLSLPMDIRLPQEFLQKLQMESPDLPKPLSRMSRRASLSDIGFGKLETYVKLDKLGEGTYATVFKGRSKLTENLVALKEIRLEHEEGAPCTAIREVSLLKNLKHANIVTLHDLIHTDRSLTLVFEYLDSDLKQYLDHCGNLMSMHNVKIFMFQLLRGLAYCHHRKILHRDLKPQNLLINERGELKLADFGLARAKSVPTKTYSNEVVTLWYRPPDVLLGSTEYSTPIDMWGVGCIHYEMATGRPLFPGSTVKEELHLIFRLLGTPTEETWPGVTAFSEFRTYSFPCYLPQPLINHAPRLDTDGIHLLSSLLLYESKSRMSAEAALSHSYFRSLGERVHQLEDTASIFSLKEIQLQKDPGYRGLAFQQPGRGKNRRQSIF", "conditions": "Compound concentration 100.0 nM"}, "[17]": {"molecular_target": "NUAK family SNF1-like kinase 2 (Homo sapiens) (UniProt Q9H093)", "conditions": "Compound concentration 100.0 nM"}, "[18]": {"molecular_target": "NUAK family SNF1-like kinase 1 (Homo sapiens) (UniProt O60285)", "sequence (O60285 whole entry)": "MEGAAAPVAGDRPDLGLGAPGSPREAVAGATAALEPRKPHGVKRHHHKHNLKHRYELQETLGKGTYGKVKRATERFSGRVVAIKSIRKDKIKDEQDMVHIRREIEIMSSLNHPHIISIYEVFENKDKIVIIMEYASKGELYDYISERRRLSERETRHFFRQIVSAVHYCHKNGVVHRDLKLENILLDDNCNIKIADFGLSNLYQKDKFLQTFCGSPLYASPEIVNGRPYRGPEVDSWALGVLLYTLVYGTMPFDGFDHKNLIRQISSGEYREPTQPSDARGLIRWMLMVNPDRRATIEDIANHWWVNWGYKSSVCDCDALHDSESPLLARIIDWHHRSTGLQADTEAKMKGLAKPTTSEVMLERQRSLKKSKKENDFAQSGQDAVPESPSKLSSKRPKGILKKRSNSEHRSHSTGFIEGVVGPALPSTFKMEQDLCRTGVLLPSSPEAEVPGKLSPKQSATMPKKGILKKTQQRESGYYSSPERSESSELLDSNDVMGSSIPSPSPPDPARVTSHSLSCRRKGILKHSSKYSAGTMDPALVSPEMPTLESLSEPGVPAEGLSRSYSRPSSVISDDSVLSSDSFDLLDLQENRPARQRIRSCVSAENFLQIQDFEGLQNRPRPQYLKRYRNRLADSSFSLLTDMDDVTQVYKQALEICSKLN", "conditions": "Compound concentration 100.0 nM"}, "[19]": {"molecular_target": "Mitogen-activated protein kinase kinase kinase 9 (Homo sapiens) (UniProt P80192)", "sequence (P80192 whole entry, looked up)": "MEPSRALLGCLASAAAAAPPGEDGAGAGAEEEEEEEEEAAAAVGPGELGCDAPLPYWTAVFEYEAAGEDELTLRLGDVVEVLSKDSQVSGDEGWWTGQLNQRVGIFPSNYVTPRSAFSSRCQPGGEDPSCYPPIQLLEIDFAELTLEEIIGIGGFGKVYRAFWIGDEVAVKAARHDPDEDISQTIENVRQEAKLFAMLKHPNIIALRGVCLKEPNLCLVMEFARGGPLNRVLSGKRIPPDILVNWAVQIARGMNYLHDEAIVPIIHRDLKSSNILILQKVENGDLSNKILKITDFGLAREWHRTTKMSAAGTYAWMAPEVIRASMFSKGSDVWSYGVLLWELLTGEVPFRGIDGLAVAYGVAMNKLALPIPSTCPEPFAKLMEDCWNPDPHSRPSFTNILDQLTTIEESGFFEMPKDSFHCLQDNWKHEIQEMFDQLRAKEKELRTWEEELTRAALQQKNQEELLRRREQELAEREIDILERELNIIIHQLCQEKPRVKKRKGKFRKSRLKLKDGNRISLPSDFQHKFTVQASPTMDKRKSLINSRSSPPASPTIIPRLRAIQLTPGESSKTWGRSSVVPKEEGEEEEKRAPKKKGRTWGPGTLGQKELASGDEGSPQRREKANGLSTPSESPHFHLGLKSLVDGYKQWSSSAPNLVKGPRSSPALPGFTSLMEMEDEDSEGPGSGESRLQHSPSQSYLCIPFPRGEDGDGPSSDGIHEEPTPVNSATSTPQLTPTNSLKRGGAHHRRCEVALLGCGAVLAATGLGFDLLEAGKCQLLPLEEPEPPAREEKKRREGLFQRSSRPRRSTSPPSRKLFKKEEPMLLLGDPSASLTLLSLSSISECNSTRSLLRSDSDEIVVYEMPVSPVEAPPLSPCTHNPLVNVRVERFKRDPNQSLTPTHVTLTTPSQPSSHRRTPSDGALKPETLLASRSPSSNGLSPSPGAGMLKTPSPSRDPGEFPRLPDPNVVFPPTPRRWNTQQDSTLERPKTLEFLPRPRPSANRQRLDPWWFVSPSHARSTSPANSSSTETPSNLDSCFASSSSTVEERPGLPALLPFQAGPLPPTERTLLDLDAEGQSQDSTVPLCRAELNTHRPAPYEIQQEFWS", "conditions": "Compound concentration 100.0 nM"}, "[20]": {"molecular_target": "Tyrosine-protein kinase Tec (Homo sapiens) (UniProt P42680)", "conditions": "Compound concentration 100.0 nM"}, "[21]": {"species_on_record": "Rattus norvegicus", "conditions": "Compound concentration 10.0 uM"}, "[22]": {"system": "Receptor-type tyrosine-protein kinase FLT3 (Homo sapiens), P36888 [D835Y]", "conditions": "Compound concentration 100.0 nM"}, "[23]": {"molecular_target": "Serine/threonine-protein kinase haspin (Homo sapiens) (UniProt Q8TF76)", "conditions": "Compound concentration 100.0 nM"}, "[24]": {"molecular_target": "Testis-specific serine/threonine-protein kinase 3 (Homo sapiens) (UniProt Q96PN8)", "sequence (Q96PN8 whole entry)": "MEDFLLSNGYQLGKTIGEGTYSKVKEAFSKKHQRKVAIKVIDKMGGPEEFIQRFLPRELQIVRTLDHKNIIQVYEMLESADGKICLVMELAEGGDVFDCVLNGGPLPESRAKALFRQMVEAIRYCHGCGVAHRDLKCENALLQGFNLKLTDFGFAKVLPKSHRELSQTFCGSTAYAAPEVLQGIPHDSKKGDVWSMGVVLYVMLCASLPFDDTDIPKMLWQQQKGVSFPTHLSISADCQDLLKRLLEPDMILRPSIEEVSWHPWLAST", "conditions": "Compound concentration 100.0 nM"}, "[25]": {"molecular_target": "LIM domain kinase 1 (Homo sapiens) (UniProt P53667)", "sequence (P53667 whole entry, looked up, the tested form may be a part)": "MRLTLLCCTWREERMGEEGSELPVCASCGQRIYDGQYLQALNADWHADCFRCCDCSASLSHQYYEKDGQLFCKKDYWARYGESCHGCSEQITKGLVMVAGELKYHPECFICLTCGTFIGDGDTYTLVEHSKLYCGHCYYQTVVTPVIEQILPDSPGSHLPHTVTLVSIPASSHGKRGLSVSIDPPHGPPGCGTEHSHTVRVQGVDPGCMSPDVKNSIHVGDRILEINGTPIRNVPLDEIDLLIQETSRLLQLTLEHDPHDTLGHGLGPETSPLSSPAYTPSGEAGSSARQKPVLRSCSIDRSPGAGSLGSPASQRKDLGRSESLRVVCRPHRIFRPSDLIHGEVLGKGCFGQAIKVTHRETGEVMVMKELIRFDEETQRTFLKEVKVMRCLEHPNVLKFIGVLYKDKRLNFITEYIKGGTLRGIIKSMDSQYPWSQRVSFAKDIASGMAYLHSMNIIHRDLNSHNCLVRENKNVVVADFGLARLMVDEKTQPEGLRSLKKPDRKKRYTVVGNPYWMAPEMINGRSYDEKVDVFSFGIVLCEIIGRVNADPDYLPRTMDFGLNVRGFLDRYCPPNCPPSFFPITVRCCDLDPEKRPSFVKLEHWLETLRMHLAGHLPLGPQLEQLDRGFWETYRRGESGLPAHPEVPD", "conditions": "Compound concentration 100.0 nM"}, "[26]": {"molecular_target": "Discoidin domain-containing receptor 2 (Homo sapiens) (UniProt Q16832)", "conditions": "Compound concentration 100.0 nM"}, "[27]": {"molecular_target": "Ephrin type-A receptor 7 (Homo sapiens) (UniProt Q15375)", "conditions": "Compound concentration 100.0 nM"}, "[28]": {"system": "Epidermal growth factor receptor (Homo sapiens), P00533 [T790M]", "conditions": "Compound concentration 100.0 nM"}, "[29]": {"molecular_target": "Delta-type opioid receptor (Homo sapiens) (UniProt P41143)", "conditions": "Compound concentration 10.0 uM"}, "[30]": {"molecular_target": "Tyrosine-protein kinase JAK1 (Homo sapiens) (UniProt P23458)", "conditions": "Compound concentration 100.0 nM"}}, "data": [{"smiles": "CCOC(=O)c1cc2cc(-c3cc(C(=O)NCc4ccc(C(=O)O)cc4)nn3C)ccc2[nH]1", "note": "[BI 4394]", "values": [{"measurement": "residual activity", "setting": "[1]", "value": 90, "unit": "%"}, {"measurement": "residual activity", "setting": "[2]", "value": 98, "unit": "%"}, {"measurement": "residual activity", "setting": "[3]", "value": 68, "unit": "%"}, {"measurement": "residual activity", "setting": "[4]", "value": 88, "unit": "%"}, {"measurement": "residual activity", "setting": "[5]", "value": 90, "unit": "%"}, {"measurement": "residual activity", "setting": "[6]", "value": 95, "unit": "%"}, {"measurement": "residual activity", "setting": "[7]", "value": 71, "unit": "%"}, {"measurement": "residual activity", "setting": "[8]", "value": 100, "unit": "%"}, {"measurement": "residual activity", "setting": "[9]", "value": 100, "unit": "%"}, {"measurement": "residual activity", "setting": "[10]", "value": 100, "unit": "%"}, {"measurement": "residual activity", "setting": "[11]", "value": 82, "unit": "%"}, {"measurement": "residual activity", "setting": "[12]", "value": 100, "unit": "%"}, {"measurement": "residual activity", "setting": "[13]", "value": 78, "unit": "%"}, {"measurement": "residual activity", "setting": "[14]", "value": 43, "unit": "%"}, {"measurement": "residual activity", "setting": "[15]", "value": 100, "unit": "%"}, {"measurement": "residual activity", "setting": "[16]", "value": 100, "unit": "%"}, {"measurement": "residual activity", "setting": "[17]", "value": 85, "unit": "%"}, {"measurement": "residual activity", "setting": "[18]", "value": 100, "unit": "%"}, {"measurement": "residual activity", "setting": "[19]", "value": 100, "unit": "%"}, {"measurement": "residual activity", "setting": "[20]", "value": 99, "unit": "%"}, {"measurement": "inhibition", "setting": "[21]", "value": -1.91, "unit": "%"}, {"measurement": "residual activity", "setting": "[22]", "value": 92, "unit": "%"}, {"measurement": "residual activity", "setting": "[23]", "value": 77, "unit": "%"}, {"measurement": "residual activity", "setting": "[24]", "value": 91, "unit": "%"}, {"measurement": "residual activity", "setting": "[25]", "value": 100, "unit": "%"}, {"measurement": "residual activity", "setting": "[26]", "value": 76, "unit": "%"}, {"measurement": "residual activity", "setting": "[27]", "value": 97, "unit": "%"}, {"measurement": "residual activity", "setting": "[28]", "value": 89, "unit": "%"}, {"measurement": "inhibition", "setting": "[29]", "value": -9.42, "unit": "%"}, {"measurement": "residual activity", "setting": "[30]", "value": 94, "unit": "%"}]}, {"smiles": "Cn1nc(C(=O)NCc2ccc(C(=O)O)cc2)cc1-c1ccc2[nH]ccc2c1", "note": "[BI 4395]", "values": [{"measurement": "residual activity", "setting": "[1]", "value": 98, "unit": "%"}, {"measurement": "residual activity", "setting": "[2]", "value": 86, "unit": "%"}, {"measurement": "residual activity", "setting": "[3]", "value": 97, "unit": "%"}, {"measurement": "residual activity", "setting": "[4]", "value": 91, "unit": "%"}, {"measurement": "residual activity", "setting": "[5]", "value": 98, "unit": "%"}, {"measurement": "residual activity", "setting": "[6]", "value": 62, "unit": "%"}, {"measurement": "residual activity", "setting": "[7]", "value": 69, "unit": "%"}, {"measurement": "residual activity", "setting": "[8]", "value": 93, "unit": "%"}, {"measurement": "residual activity", "setting": "[9]", "value": 91, "unit": "%"}, {"measurement": "residual activity", "setting": "[10]", "value": 62, "unit": "%"}, {"measurement": "residual activity", "setting": "[11]", "value": 65, "unit": "%"}, {"measurement": "residual activity", "setting": "[12]", "value": 95, "unit": "%"}, {"measurement": "residual activity", "setting": "[13]", "value": 63, "unit": "%"}, {"measurement": "residual activity", "setting": "[14]", "value": 88, "unit": "%"}, {"measurement": "residual activity", "setting": "[15]", "value": 92, "unit": "%"}, {"measurement": "residual activity", "setting": "[16]", "value": 97, "unit": "%"}, {"measurement": "residual activity", "setting": "[17]", "value": 87, "unit": "%"}, {"measurement": "residual activity", "setting": "[18]", "value": 70, "unit": "%"}, {"measurement": "residual activity", "setting": "[19]", "value": 100, "unit": "%"}, {"measurement": "residual activity", "setting": "[20]", "value": 89, "unit": "%"}, {"measurement": "inhibition", "setting": "[21]", "value": 6.39, "unit": "%"}, {"measurement": "residual activity", "setting": "[22]", "value": 81, "unit": "%"}, {"measurement": "residual activity", "setting": "[23]", "value": 77, "unit": "%"}, {"measurement": "residual activity", "setting": "[24]", "value": 97, "unit": "%"}, {"measurement": "residual activity", "setting": "[25]", "value": 100, "unit": "%"}, {"measurement": "residual activity", "setting": "[26]", "value": 75, "unit": "%"}, {"measurement": "residual activity", "setting": "[27]", "value": 82, "unit": "%"}, {"measurement": "residual activity", "setting": "[28]", "value": 100, "unit": "%"}, {"measurement": "inhibition", "setting": "[29]", "value": 0.8, "unit": "%"}, {"measurement": "residual activity", "setting": "[30]", "value": 84, "unit": "%"}]}]}
